Source: the kinase profiling compilation of Christmann-Franck et al. (2016)

Columns and labels:
[1] = biological target: DAPK3 (human) (UniProt O43293); experiment: Caliper, Mobility shift assay off-chip
[2] = system: EGFR (human), P00533 [T790M]; experiment: Caliper, Mobility shift assay off-chip
[3] = biological target: HIPK1 (human) (UniProt Q86Z02); experiment: Caliper, Mobility shift assay off-chip
[4] = biological target: PTK2B (human) (UniProt Q14289); experiment: Caliper, Mobility shift assay off-chip
[5] = biological target: FGFR1 (human) (UniProt P11362); experiment: Caliper, Mobility shift assay off-chip
[6] = biological target: MAPK13 (human) (UniProt O15264); experiment: radiometric filter-binding kinase assay, Kinaseprofiler; details: compound 1.0 µM; ATP 15 µM
[7] = biological target: LIMK1 (human) (UniProt P53667); experiment: as above; details: compound 1.0 µM; ATP 15 µM
[8] = biological target: EPHA8 (human) (UniProt P29322); experiment: as above; details: compound 1.0 µM; ATP 200 µM
[9] = biological target: MAP2K6 (human) (UniProt P52564); experiment: as above; details: compound 1.0 µM; ATP 10 µM
[10] = system: AKT1 (human), P31749 [S478G]; experiment: as above; details: compound 1.0 µM; ATP 155 µM
[11] = biological target: RET (human) (UniProt P07949); experiment: as above; details: compound 1.0 µM; ATP 70 µM
[12] = biological target: MAP3K9 (human) (UniProt P80192); experiment: as above; details: compound 1.0 µM; ATP 45 µM
[13] = biological target: MAPK14 (human) (UniProt Q16539); experiment: as above; details: compound 1.0 µM; ATP 90 µM
[14] = biological target: PRKCE (human) (UniProt Q02156); experiment: as above; details: compound 1.0 µM; ATP 45 µM
[15] = system: MAPK9 (human), P45984 [S51N]; experiment: as above; details: compound 1.0 µM; ATP 45 µM
[16] = system: TEK (human), Q02763 [Q939H/Q940H]; experiment: as above; details: compound 1.0 µM; ATP 200 µM
[17] = system: EPHB2 (human), P29323 [A848S/K918E]; experiment: as above; details: compound 1.0 µM; ATP 10 µM
[18] = system: GSK3B (human), P49841 [H350L]; experiment: as above; details: compound 1.0 µM; ATP 15 µM
[19] = biological target: PRKCA (human) (UniProt P17252); experiment: as above; details: compound 1.0 µM; ATP 45 µM
[20] = biological target: IRAK1 (human) (UniProt P51617); experiment: as above; details: compound 1.0 µM; ATP 45 µM
[21] = biological target: CSNK1D (human) (UniProt P48730); experiment: as above; details: compound 1.0 µM; ATP 70 µM
[22] = biological target: KIT (human) (UniProt P10721); experiment: as above; details: compound 1.0 µM; ATP 200 µM
[23] = biological target: STK10 (human) (UniProt O94804); experiment: as above; details: compound 1.0 µM; ATP 200 µM
[24] = biological target: JAK2 JH1 catalytic (human) (UniProt O60674); experiment: as above; details: compound 1.0 µM; ATP 45 µM
[25] = biological target: PLK2 (human) (UniProt Q9NYY3); experiment: as above; details: compound 1.0 µM; ATP 120 µM
[26] = system: ROS1 (human), P08922 [V2262A]; experiment: as above; details: compound 1.0 µM; ATP 200 µM
[27] = biological target: FRK (human) (UniProt P42685); experiment: as above; details: compound 1.0 µM; ATP 155 µM
[28] = biological target: CAMK4 (human) (UniProt Q16566); experiment: as above; details: compound 1.0 µM; ATP 10 µM
[29] = biological target: YES1 (human) (UniProt P07947); experiment: as above; details: compound 1.0 µM; ATP 45 µM
[30] = biological target: RIPK2 (human) (UniProt O43353); experiment: as above; details: compound 1.0 µM; ATP 120 µM
[31] = biological target: ITK (human) (UniProt Q08881); experiment: as above; details: compound 1.0 µM; ATP 200 µM
[32] = system: FLT4 (human), P35916 [V1128L/H1146R]; experiment: as above; details: compound 1.0 µM; ATP 200 µM
[33] = biological target: INSRR (human) (UniProt P14616); experiment: as above; details: compound 1.0 µM; ATP 200 µM
[34] = biological target: SYK (human) (UniProt P43405); experiment: as above; details: compound 1.0 µM; ATP 15 µM
[35] = biological target: INSR (human) (UniProt P06213); experiment: as above; details: compound 1.0 µM; ATP 200 µM
[36] = biological target: MET (human) (UniProt P08581); experiment: Caliper, Mobility shift assay off-chip
[37] = biological target: MET (human) (UniProt P08581); experiment: TR FRET

Question: Which results are given for Cn1cc(-c2cnc3ccc4ccc(CS(=O)(=O)NC5CCCCC5)cc4c(=O)c3c2)cn1?
Answer: inhibition ([1]; compound 0.01 µM): -1.6%; inhibition ([1]; compound 0.1 µM): 0.3%; inhibition ([2]; compound 0.01 µM): -4.4%; inhibition ([2]; compound 0.1 µM): -7.2%; inhibition ([3]; compound 0.01 µM): 1.9%; inhibition ([3]; compound 0.1 µM): 4.6%; inhibition ([4]; compound 0.01 µM): -1%; inhibition ([4]; compound 0.1 µM): 6.8%; inhibition ([5]; compound 0.01 µM): 6.8%; inhibition ([5]; compound 0.1 µM): 2.8%

Question: For CN(C)S(=O)(=O)Nc1ccc2ccc3ncc(-c4cnn(C)c4)cc3c(=O)c2c1, which residual activity [6] is on record?
Answer: Its residual activity is 98%.

Question: And the residual activity [7]?
Answer: The residual activity was 72%.

Question: And the residual activity [8]?
Answer: The residual activity was 108%.

Question: And the residual activity [9]?
Answer: Its residual activity is 117%.

Question: What about the residual activity [10] of the same molecule?
Answer: The residual activity was 109%.

Question: What about the residual activity [11] of the same molecule?
Answer: Its residual activity is 2%.

Question: What about the residual activity [12] of the same molecule?
Answer: Its residual activity is 61%.

Question: What about the residual activity [13] of the same molecule?
Answer: Its residual activity is 124%.

Question: What about the residual activity [14] of the same molecule?
Answer: The residual activity was 103%.

Question: And the residual activity [15]?
Answer: Its residual activity is 88%.

Question: What about the residual activity [16] of the same molecule?
Answer: The residual activity was 66%.

Question: What about the residual activity [17] of the same molecule?
Answer: Its residual activity is 103%.

Question: And the residual activity [18]?
Answer: Its residual activity is 110%.

Question: What about the residual activity [19] of the same molecule?
Answer: Its residual activity is 105%.

Question: What about the residual activity [20] of the same molecule?
Answer: The residual activity was 83%.

Question: What about the residual activity [21] of the same molecule?
Answer: Its residual activity is 98%.

Question: And the residual activity [22]?
Answer: Its residual activity is 78%.

Question: And the residual activity [23]?
Answer: Its residual activity is 78%.

Question: What about the residual activity [24] of the same molecule?
Answer: Its residual activity is 43%.

Question: What about the residual activity [25] of the same molecule?
Answer: The residual activity was 58%.

Question: What about the residual activity [26] of the same molecule?
Answer: The residual activity was 71%.

Question: And the residual activity [27]?
Answer: Its residual activity is 104%.

Question: What about the residual activity [28] of the same molecule?
Answer: The residual activity was 98%.

Question: What about the residual activity [29] of the same molecule?
Answer: Its residual activity is 71%.

Question: And the residual activity [30]?
Answer: Its residual activity is 35%.

Question: And the residual activity [31]?
Answer: The residual activity was 18%.

Question: And the residual activity [32]?
Answer: Its residual activity is 10%.

Question: What about the residual activity [33] of the same molecule?
Answer: The residual activity was 103%.

Question: And the residual activity [34]?
Answer: Its residual activity is 94%.

Question: And the residual activity [35]?
Answer: Its residual activity is 109%.

Question: How did the inhibition ([1]; compound 0.1 µM) turn out when O=C(CCc1ccc2ccc3ncc(C4CCNCC4)cc3c(=O)c2c1)NCc1ccccn1 was run?
Answer: Its inhibition is -1.7%.

Question: And the inhibition ([1]; compound 1.0 µM)?
Answer: Its inhibition is -4.5%.

Question: And the inhibition ([2]; compound 0.1 µM)?
Answer: Its inhibition is 1.6%.

Question: And the inhibition ([2]; compound 1.0 µM)?
Answer: The inhibition was -11.1%.

Question: And the inhibition ([3]; compound 0.1 µM)?
Answer: Its inhibition is 7.2%.

Question: What about the inhibition ([3]; compound 1.0 µM) of the same molecule?
Answer: Its inhibition is -0.1%.

Question: And the inhibition ([4]; compound 0.1 µM)?
Answer: The inhibition was 10%.

Question: What about the inhibition ([4]; compound 1.0 µM) of the same molecule?
Answer: Its inhibition is 2.5%.

Question: What about the inhibition ([5]; compound 0.1 µM) of the same molecule?
Answer: Its inhibition is 1.5%.

Question: What about the inhibition ([5]; compound 1.0 µM) of the same molecule?
Answer: Its inhibition is -7.9%.

Question: What about the inhibition ([36]; compound 0.1 µM) of the same molecule?
Answer: The inhibition was 74.1%.

Question: And the inhibition ([36]; compound 1.0 µM)?
Answer: The inhibition was 95.7%.

Question: What about the IC50 [37] of the same molecule?
Answer: The IC50 was 85 nM.

Question: With Cn1cc(-c2cnc3ccc4ccc(CS(=O)(=O)CCc5ccccn5)cc4c(=O)c3c2)cn1 as the molecule, how does the inhibition ([5]; compound 0.1 µM) read?
Answer: The inhibition was 12.3%.

Question: What about the inhibition ([5]; compound 1.0 µM) of the same molecule?
Answer: The inhibition was 61.2%.

Question: Which inhibition ([5]; compound 0.01 µM) does the source give for O=c1c2cc(CS(=O)(=O)NCc3ccccn3)ccc2ccc2ncc(C3CCNCC3)cc12 here?
Answer: The inhibition was 3.8%.

Question: And the inhibition ([5]; compound 0.1 µM)?
Answer: The inhibition was 10.7%.

Question: What about the inhibition ([36]; compound 0.01 µM) of the same molecule?
Answer: Its inhibition is 94.7%.

Question: And the inhibition ([36]; compound 0.1 µM)?
Answer: The inhibition was 99.3%.

Question: And the IC50 [37]?
Answer: Its IC50 is 1 nM.

Question: What does the source list for CN(c1ccc2ccc3ncc(-c4cnn(C)c4)cc3c(=O)c2c1)S(=O)(=O)NCc1ccccn1?
Answer: inhibition ([1]; compound 0.1 µM): 5%; inhibition ([1]; compound 1.0 µM): 10.3%; inhibition ([2]; compound 0.1 µM): 11.2%; inhibition ([2]; compound 1.0 µM): 1.9%; inhibition ([3]; compound 0.1 µM): 1%; inhibition ([3]; compound 1.0 µM): 5.5%; inhibition ([4]; compound 0.1 µM): -3.9%; inhibition ([4]; compound 1.0 µM): 3.2%; inhibition ([5]; compound 0.1 µM): -11.4%; inhibition ([5]; compound 1.0 µM): 26.7%
